Entries after “also recorded” stand apart in the source; their conditions may differ.
How the values were obtained:
[1] = system: TAC-induced cardiac autophagy and remodeling; assay: In vivo model of pressure overload (thoracic aortic constriction, TAC); design: species or system mice; conditions: daily intra-peritoneal 300 mg/kg
Experimental: Immuno-histochemical staining of heart tissue sections was performed using the Novolink Kit (Menarini Diagnostics, RE7140-K), as previously described (Ladoire et al., 2012). Briefly, […] formalin-fixed, paraffin-embedded tissue sections were deparaffinized with 3 successive passages through xylene, and rehydrated through decreasing concentrations (100%, 95%, 80%, 70% and 50%) of ethanol. Antigen retrieval was performed by heating slides for 30 min in pH 6.0 citrate buffer at 95° C. Slides were then allowed to cool at room temperature for 45 min, mounted on Shandon Sequenza coverplates (Thermo Fisher Scientific, 72-199-50) in distilled water, and then washed twice for 5 min with 0.1% Tween 20 (v/v in PBS). Thereafter, sections were incubated for 5 min with the Peroxidase Block reagent, and subsequently washed twice for 5 min with 0.1% Tween 20 (v/v in PBS). […] Two-dimensional echocardiography was performed prior to surgery and 1 week post-surgery in non-sedated mice to quantify functional parameters using a Vevo 2100 high-resolution imaging system (Visual Sonics). […] Quantitative analysis was obtained through measurement of an average of 900 cells in each section from two (sham) or three (TAC) animals.

KRas-induced lung cancer = KRas-induced lung cancer (AdCre inhalation); format: in vivo, mice
Experimental: Atg5fl/fl mice were kindly given by Dr Noboru Mizushima. LSL-K-rasG12D;Atg5fl/fl mice were obtained as described in^7. In all experiments, only littermate mice were used as controls. All mice were maintained according to the ethical animal licence protocol complying with the Austrian and European legislation. All experiments were approved by Bundesministerium for Wissenschaft and Forschung, Austria (BMWF-66.015/0013-II/3b/2012).
Inhalation of 6-8-week-old mice with AdCre viruses was performed as previously reported (REF). In brief, experimental animals were anaesthetized with 10% Ketasol/Xylasol and placed on a heated pad. An AdCre-CaCl2 precipitate was produced by mixing […], 2.5 ml AdCre (1010 p.f.u. ml_1; University of Iowa, Gene Transfer Vector Core Iowa, USA) and 0.6 ml CaCl2 (1 M) for each mouse and incubated for 20 min at room temperature. One week after AdCre inhalation, mice were administered with 900 mg/kg HC per body weight in drinking water for 5 weeks and tumors lesions were evaluated by immunohistochemistry.
For KRas-induced lung cancers hisology, […] sections from at least three different planes were cut and stained with haematoxylin and eosin. Sections were scanned using a Mirax slide scanner and lung/tumour areas were automatically scored by an algorithm programmed and executed using the Definiens software suite and visually analyzed in a double blinded fashion. Immunhistochemical staining was performed by automatic staining machine (Leica Bond3) or manually processed. Sections were dehydrated and antigenic epitopes were retrieved using a 10-mM citrate buffer and microwaving for 10 min. Specimen were then incubated with rabbit polyclonal anti-Foxp3 (eBioscience, 13-5773, :100), anti-CD3E (Santa Cruz, 101442, 1:100). Primary Ab staining was detected by peroxidase conjugated anti-rabbit IgG (DAKO, P0448, 1:500). Positive cells were counted on 20 randomly chosen tumour areas at _400 magnifications in a double blinded fashion. Quantitative analysis was performed using HistoQuest software (TissueGnostics GmbH, Vienna, Austria; http://www.tissuegnostics.com).

| Structure (SMILES) | TAC-induced cardiac autophagy [1] | TAC-induced pathological remodeling / heart failure features [1] | autophagy (LC3 dots) in KRas induced lung adenocarcinomas (KRas-induced lung cancer; Atg5fl/+ tumors) | Foxp3+ regulatory T cells in tumor bed (KRas-induced lung cancer; KRas;Atg5fl/+ mice) | number and size of tumor lesions (KRas-induced lung cancer; KRas;Atg5fl/+ mice, 5 weeks in drinking water) | ratio between CD8+ and Foxp3+ lymphocytes (KRas-induced lung cancer; KRas;Atg5fl/+ tumors) | lung cancers in mice without adaptive immunity (KRas-induced lung cancer; Rag2−/− mice, data not shown) |
| --- | --- | --- | --- | --- | --- | --- | --- |
| COC(=O)CCC(=O)C(=O)OC [DMKG, dimethyl-α-ketoglutarate] | decreased cardiac autophagy induced by thoracic aortic constriction (TAC); also recorded: inhibited the maladaptive accumulation of autophagosomes | suppressed TAC-induced pathological remodeling; also recorded: suppressed multiple features of TAC-induced heart failure |  |  |  |  |  |
| O=C(O)CC(O)(C(=O)O)C(O)C(=O)O (stereo not shown) [HC, hydroxycitrate] |  |  | induced autophagy in KRas induced lung adenocarcinomas | reduces CD3+ FOXP3 Regulatory T cells in tumor bed; also recorded: reduced the density of tumor infiltration by lymphocytes expressing the Treg marker Foxp3 | reduces tumor size and lesions; also recorded: reduced the number and size of Ad-Cre-induced tumor lesions | improvement in the ratio between CD8^+ and Foxp3^+ lymphocytes | had no positive effect on lung cancers evolving in Rag2^−− mice |

— patent US11040052B2, “Methods and pharmaceutical compositions for modulating autophagy in a subject in need thereof” (INSERM (INSTITUT NATIONAL DE LA SANTE ET DE LA RECHERCHE …, priority 2013, dated 2021)
